For data set [1], the system named is TNF-α, IFN-γ, IL-1μ, IL-2, IL-4, IL-5, IL-6, IL-8, IL-10, IL-12, and IL-23. The experiment in a line: Release of pro-inflammatory cytokines (summary statement). The format is cell-based. From the text:
This activity is explained in part by the inhibition of phosphodiesterase-4 (PDE-4).

Data set [2] deals with IL-6 production by human PBMCs. The experiment in a line: IL-6 production by LPS- or PHA-stimulated PBMCs. The data set is classed as cell-based.
Data set [3] has as its system IL-1β production by human PBMCs. Briefly: IL-1β production by LPS- or PHA-stimulated PBMCs. The format is cell-based.
A further data set relates to shrews (Suncus murinus). The note with it: shrew (Suncus murinus), in vivo, po.
Another data set has as its system T1, PDE3 Cat.
T1 construct: Recombinant human PDE enzymes were expressed in a baculoviral system.; PDE isoforms tested include
The experiment in a line: PDE3 inhibition. The data set is classed as biochemical.

For a further data set, the system named is IFN-γ. The experiment in a line: Cytokine assay, IFN-γ release from PBMC. The format is cell-based. The note with it: human PBMC, 20 ug/mL PHA, supernatant at 24 hours. The procedure, abridged:
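Cytokine released into the medium was the read-out. Thawed human peripheral blood mononuclear cells in RPMI 1640/10% FBS received test article at 0.01–10 μM, in triplicate wells.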

A further data set deals with Sprague-Dawley rats. The settings on record: oral 30, 100, and 300 mg/kg/day, 14 consecutive days.
For a further data set, the target named is T2, PDE2 (Homo sapiens, UniProt O00408).
T2 construct: made in house; host or cells: baculoviral expression system
Briefly: PDE2 inhibition. The format is biochemical.

Data set [4] deals with TNF-α secretion from peripheral blood mononuclear cells (PBMCs). The experiment in a line: TNF-α secretion from PBMCs stimulated by LPS. The note with it: PBMC. The format is cell-based, human. From the text:
Compounds were screened by a biochemical assay against PDE4 enzyme and cell-based cytokine release assays using PBMCs stimulated by LPS or phytohemagglutinin (PHA).

Each structure is given as a SMILES string. Where two headings read alike, the source gives them in different places.

T2 sequence (O00408 whole entry): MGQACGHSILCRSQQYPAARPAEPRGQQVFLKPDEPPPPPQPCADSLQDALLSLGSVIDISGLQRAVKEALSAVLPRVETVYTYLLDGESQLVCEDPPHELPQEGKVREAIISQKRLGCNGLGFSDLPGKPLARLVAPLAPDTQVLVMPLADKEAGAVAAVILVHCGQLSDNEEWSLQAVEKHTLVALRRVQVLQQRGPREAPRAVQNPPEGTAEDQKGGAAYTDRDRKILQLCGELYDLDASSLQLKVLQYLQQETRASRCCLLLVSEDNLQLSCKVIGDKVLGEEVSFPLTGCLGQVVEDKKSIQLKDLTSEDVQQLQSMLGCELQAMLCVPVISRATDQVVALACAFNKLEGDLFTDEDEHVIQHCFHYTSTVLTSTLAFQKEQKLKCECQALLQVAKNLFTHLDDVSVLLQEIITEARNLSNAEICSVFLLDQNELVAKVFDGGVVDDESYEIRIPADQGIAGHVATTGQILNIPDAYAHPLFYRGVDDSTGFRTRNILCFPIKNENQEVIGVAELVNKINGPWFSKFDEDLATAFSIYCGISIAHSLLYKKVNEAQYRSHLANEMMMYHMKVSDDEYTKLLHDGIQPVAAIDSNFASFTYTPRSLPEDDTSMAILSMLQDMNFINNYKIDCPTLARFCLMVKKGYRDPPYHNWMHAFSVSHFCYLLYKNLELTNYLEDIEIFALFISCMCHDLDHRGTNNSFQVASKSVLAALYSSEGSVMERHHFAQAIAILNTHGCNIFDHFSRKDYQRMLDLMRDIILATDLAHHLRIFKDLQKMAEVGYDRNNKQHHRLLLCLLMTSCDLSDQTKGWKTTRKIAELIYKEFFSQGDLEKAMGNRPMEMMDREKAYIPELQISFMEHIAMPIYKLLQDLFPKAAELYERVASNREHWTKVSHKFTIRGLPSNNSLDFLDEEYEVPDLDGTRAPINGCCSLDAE

A word on the IC50: it is the point on the concentration scale where inhibition reaches its midpoint. As for `N#Cc1ccc(Oc2ccc3c(c2)COB3O)cc1` [C17, 5-(4-cyanophenoxy)-1-hydroxy-1,3-dihydro-2,1-benzoxaborole], in [1], the “release of pro-inflammatory cytokines including TNF-α, IFN-γ, IL-1μ, IL-2, IL-4, IL-5, IL-6, IL-8, IL-10, IL-12, and IL-23” value is “inhibition of the release”. Besides, the IC50 in [2] (PBMC, LPS- and PHA-induced cytokine production by human PBMCs, read-out: IC50 IL-6 (pro-inflammatory cytokines)) was more than 30 µM; in data set [3] (PBMC, LPS- and PHA-induced cytokine production by human PBMCs, read-out: IC50 IL-1β (pro-inflammatory cytokines)), more than 30 µM; in the data set on PDE3 Cat (standard: Cilostazol), 1 to 10 µM; in the data set with IFN-γ, less than 1 µM; in data set [4] (Homo sapiens, PBMCs stimulated by LPS, read-out: TNF-α secretion IC50) it was 0.77 µM; in [4] (LPS- and PHA-induced cytokine production by human PBMCs, read-out: IC50 TNFα (pro-inflammatory cytokines)) it was less than 1 µM. Besides, the “effect on IL-6” value in data set [2] (PBMCs) is given as “not affected”. Besides, in data set [3] (PBMCs), the “effect on IL-1” value is recorded as “not affected”. In the data set on shrews (Suncus murinus), the “no-observed-effect level (NOEL), emesis” value is on record as 10 mg/kg. Besides, the “inhibition of PDE3” value in the data set on PDE3 Cat is on record as “does not significantly inhibit”. Further, the “mortality, clinical pathology, microscopic or macroscopic changes” value with Sprague-Dawley rats is “No mortality, adverse effects on clinical pathology, or microscopic or macroscopic changes were observed in any dose group”. Also, at PDE2, the “inhibition of PDE2” value is listed as “does not significantly inhibit”.

These data come from patent publication US9012431B2, “Boron-containing small molecules as anti-inflammatory agents” (Anacor Pharmaceuticals, Inc., priority 2008, dated 2015).
